In ChEMBL document CHEMBL4184318, “Identification of Fast-Acting 2,6-Disubstituted Imidazopyridines That Are Efficacious in the in Vivo Humanized Plasmodium falciparum NODscidIL2Rγ null Mouse Model of Malaria” (J Med Chem, 2018):
In brackets after ≈: the same amount, converted by molar mass.

Legend:
[1] = Cmax in NOD-scid IL-2Rgamma-null mouse model engrafted with Plasmodium falciparum 3D7 infected human erythrocytes at 50 mg/kg administered via oral gavage measured over 23 hrs post first dose by LC-MS/MS method; format: ADME, organism-based; design: dose 50 mg/kg, route oral; details: in vivo
[2] = system: Mus musculus; experiment: Dose normalized Cmax in NOD-scid IL-2Rgamma-null mouse model engrafted with Plasmodium falciparum 3D7 infected human erythrocytes at 5 mg/kg administered via oral gavage measured over 23 hrs post first dose by LC-MS/MS method; format: ADME, organism-based; details: in vivo
[3] = Tmax in NOD-scid IL-2Rgamma-null mouse model engrafted with Plasmodium falciparum 3D7 infected human erythrocytes at 5 mg/kg administered via oral gavage measured over 23 hrs post first dose by LC-MS/MS method; format: ADME, organism-based; details: in vivo
[4] = AUC (0 to 23 hrs) in NOD-scid IL-2Rgamma-null mouse model engrafted with Plasmodium falciparum 3D7 infected human erythrocytes at 5 mg/kg administered via oral gavage by LC-MS/MS method; format: ADME, organism-based; design: dose 5 mg/kg, time < 23 hr, route oral; details: in vivo
[5] = Drug metabolism in iv or po dosed BALB/c mouse plasma assessed as metabolism at cyclohexane ring by LC-MS/MS method; format: ADME, organism-based; details: in vivo
[6] = system: Mus musculus; experiment: Dose normalized AUC (0 to 23 hrs) in NOD-scid IL-2Rgamma-null mouse model engrafted with Plasmodium falciparum 3D7 infected human erythrocytes at 5 mg/kg administered via oral gavage by LC-MS/MS method; format: ADME, organism-based; details: in vivo
[7] = Tmax in NOD-scid IL-2Rgamma-null mouse model engrafted with Plasmodium falciparum 3D7 infected human erythrocytes at 25 mg/kg administered via oral gavage measured over 23 hrs post first dose by LC-MS/MS method; format: ADME, organism-based; details: in vivo
[8] = Volume of distribution in BALB/c mouse at 5 mg/kg, iv administered as 2 mins of infusion by LC-MS/MS method; format: ADME, organism-based; details: in vivo
[9] = Oral bioavailability in BALB/c mouse at 20 mg/kg administered via gavage as bolus dose by LC-MS/MS method; format: ADME, organism-based; details: in vivo
[10] = system: Mus musculus; experiment: Dose normalized Cmax in NOD-scid IL-2Rgamma-null mouse model engrafted with Plasmodium falciparum 3D7 infected human erythrocytes at 25 mg/kg administered via oral gavage measured over 23 hrs post first dose by LC-MS/MS method; format: ADME, organism-based; details: in vivo
[11] = AUC (0 to 23 hrs) in NOD-scid IL-2Rgamma-null mouse model engrafted with Plasmodium falciparum 3D7 infected human erythrocytes at 50 mg/kg administered via oral gavage by LC-MS/MS method; format: ADME, organism-based; design: dose 50 mg/kg, time < 23 hr, route oral; details: in vivo
[12] = Cmax in Sprague-Dawley rat at 3 mg/kg, iv administered as 2 mins of infusion by LC-MS/MS method; format: ADME, organism-based; design: dose 3 mg/kg, route intravenous; details: in vivo
[13] = AUC (0 to 23 hrs) in NOD-scid IL-2Rgamma-null mouse model engrafted with Plasmodium falciparum 3D7 infected human erythrocytes at 25 mg/kg administered via oral gavage by LC-MS/MS method; format: ADME, organism-based; design: time < 23 hr, dose 25 mg/kg, route oral; details: in vivo
[14] = Cmax in BALB/c mouse at 20 mg/kg administered via oral gavage as bolus dose by LC-MS/MS method; format: ADME, organism-based; design: dose 20 mg/kg, route oral; details: in vivo
[15] = Cmax in NOD-scid IL-2Rgamma-null mouse model engrafted with Plasmodium falciparum 3D7 infected human erythrocytes at 10 mg/kg administered via oral gavage measured over 23 hrs post first dose by LC-MS/MS method; format: ADME, organism-based; design: dose 10 mg/kg, route oral; details: in vivo
[16] = Tmax in NOD-scid IL-2Rgamma-null mouse model engrafted with Plasmodium falciparum 3D7 infected human erythrocytes at 10 mg/kg administered via oral gavage measured over 23 hrs post first dose by LC-MS/MS method; format: ADME, organism-based; details: in vivo
[17] = system: Rattus norvegicus; experiment: Dose normalized AUC (0 to infinity) in Sprague-Dawley rat at 3 mg/kg, iv administered as 2 mins of infusion by LC-MS/MS method; format: ADME, organism-based; details: in vivo
[18] = system: Mus musculus; experiment: Dose normalized AUC (0 to infinity) in BALB/c mouse at 5 mg/kg, iv administered as 2 mins of infusion by LC-MS/MS method; format: ADME, organism-based; details: in vivo
[19] = Tmax in BALB/c mouse at 20 mg/kg administered via oral gavage as bolus dose by LC-MS/MS method; format: ADME, organism-based; details: in vivo
[20] = Kinetic solubility of the compound in HCl at pH 2 after 20 hrs by shake flask method; format: physicochemical; details: read-out: Kinetic_solubility
[21] = Tmax in Sprague-Dawley rat at 15 mg/kg administered via oral gavage as bolus dose by LC-MS/MS method; format: ADME, organism-based; details: in vivo
[22] = system: Mus musculus; experiment: Dose normalized AUC (0 to 23 hrs) in NOD-scid IL-2Rgamma-null mouse model engrafted with Plasmodium falciparum 3D7 infected human erythrocytes at 25 mg/kg via oral gavage by LC-MS/MS method; format: ADME, organism-based; details: in vivo
[23] = AUC (0 to 23 hrs) in NOD-scid IL-2Rgamma-null mouse model engrafted with Plasmodium falciparum 3D7 infected human erythrocytes at 10 mg/kg administered via oral gavage by LC-MS/MS method; format: ADME, organism-based; design: dose 10 mg/kg, time < 23 hr, route oral; details: in vivo
[24] = Cmax in NOD-scid IL-2Rgamma-null mouse model engrafted with Plasmodium falciparum 3D7 infected human erythrocytes at 25 mg/kg administered via oral gavage measured over 23 hrs post first dose by LC-MS/MS method; format: ADME, organism-based; design: dose 25 mg/kg, route oral; details: in vivo
[25] = Oral bioavailability in Sprague-Dawley rat at 15 mg/kg administered via gavage as bolus dose by LC-MS/MS method; format: ADME, organism-based; details: in vivo
[26] = Kinetic solubility of the compound in phosphate buffered saline at pH 6.5 after 20 hrs by shake flask method; format: physicochemical; details: read-out: Kinetic_solubility
[27] = Kinetic solubility of the compound in FaSSIF at pH 6.5 after 20 hrs by shake flask method; format: physicochemical; details: read-out: Kinetic_solubility
[28] = system: Mus musculus; experiment: Dose normalized AUC (0 to infinity) in BALB/c mouse at 20 mg/kg administered via oral gavage as bolus dose by LC-MS/MS method; format: ADME, organism-based; details: in vivo
[29] = Cmax in Sprague-Dawley rat at 15 mg/kg administered via oral gavage as bolus dose by LC-MS/MS method; format: ADME, organism-based; design: dose 15 mg/kg, route oral; details: in vivo
[30] = Cmax in BALB/c mouse at 5 mg/kg, iv administered as 2 mins of infusion by LC-MS/MS method; format: ADME, organism-based; design: dose 5 mg/kg, route intravenous; details: in vivo
[31] = Tmax in NOD-scid IL-2Rgamma-null mouse model engrafted with Plasmodium falciparum 3D7 infected human erythrocytes at 50 mg/kg administered via oral gavage measured over 23 hrs post first dose by LC-MS/MS method; format: ADME, organism-based; details: in vivo
[32] = system: Mus musculus; experiment: Dose normalized AUC (0 to 23 hrs) in NOD-scid IL-2Rgamma-null mouse model engrafted with Plasmodium falciparum 3D7 infected human erythrocytes at 10 mg/kg administered via oral gavage by LC-MS/MS method; format: ADME, organism-based; details: in vivo
[33] = system: Rattus norvegicus; experiment: Dose normalized AUC (0 to infinity) in Sprague-Dawley rat at 15 mg/kg administered via oral gavage as bolus dose by LC-MS/MS method; format: ADME, organism-based; details: in vivo
[34] = Cmax in NOD-scid IL-2Rgamma-null mouse model engrafted with Plasmodium falciparum 3D7 infected human erythrocytes at 5 mg/kg administered via oral gavage measured over 23 hrs post first dose by LC-MS/MS method; format: ADME, organism-based; design: dose 5 mg/kg, route oral; details: in vivo
[35] = system: Mus musculus; experiment: Dose normalized AUC (0 to 23 hrs) in NOD-scid IL-2Rgamma-null mouse model engrafted with Plasmodium falciparum 3D7 infected human erythrocytes at 50 mg/kg administered via oral gavage by LC-MS/MS method; format: ADME, organism-based; details: in vivo
[36] = system: Mus musculus; experiment: Dose normalized Cmax in NOD-scid IL-2Rgamma-null mouse model engrafted with Plasmodium falciparum 3D7 infected human erythrocytes at 50 mg/kg administered via oral gavage measured over 23 hrs post first dose by LC-MS/MS method; format: ADME, organism-based; details: in vivo
[37] = Volume of distribution in Sprague-Dawley rat at 3 mg/kg, iv administered as 2 mins of infusion by LC-MS/MS method; format: ADME, organism-based; details: in vivo
[38] = system: Mus musculus; experiment: Dose normalized Cmax in NOD-scid IL-2Rgamma-null mouse model engrafted with Plasmodium falciparum 3D7 infected human erythrocytes at 10 mg/kg administered via oral gavage measured over 23 hrs post first dose by LC-MS/MS method; format: ADME, organism-based; details: in vivo
[39] = Drug metabolism in po dosed BALB/c mouse plasma assessed as sulfation of pyridine ring by LC-MS/MS method; format: ADME, organism-based; details: in vivo
[40] = Drug metabolism in po dosed BALB/c mouse plasma assessed as oxidation of pyridine ring by LC-MS/MS method; format: ADME, organism-based; details: in vivo
[41] = Drug metabolism in po dosed BALB/c mouse plasma assessed as glucuronidation of pyridine ring by LC-MS/MS method; format: ADME, organism-based; details: in vivo

FC1(F)CCC(c2nc3cnc(Nc4ccc(C(F)(F)F)cn4)cc3[nH]2)CC1
Cmax [1]: 8650 ng/mL
Cmax/dose [2]: 0.086 µg/mL/mg/kg
Tmax [3]: 0.5 to 2 h
AUC(0-t) at 23 h [4]: 4380 ng·h/mL
Drug metabolism [5]: Metabolite_Notdetected
AUC/dose [6]: 0.876 µg·h/mL/mg/kg
Tmax [7]: 0.5 to 23 h
Vd [8]: 1.5 L/kg
bioavailability [9]: 51%
Cmax/dose [10]: 0.167 µg/mL/mg/kg
AUC(0-t) at 23 h [11]: 88000 ng·h/mL
Cmax [12]: 2.6 µM
AUC(0-t) at 23 h [13]: 46200 ng·h/mL
Cmax [14]: 9.6 µM
Cmax [15]: 927 ng/mL
Tmax [16]: 0.5 to 4 h
AUC/dose [17]: 286 µM·min
AUC/dose [18]: 1078 µM·min
Tmax [19]: 1 h
solubility kinetic at 20 h [20]: 199 µM (≈ 79.1 µg/mL)
Tmax [21]: 3 h
AUC/dose [22]: 2.311 µg·h/mL/mg/kg
AUC(0-t) at 23 h [23]: 8670 ng·h/mL
Cmax [24]: 3340 ng/mL
bioavailability [25]: 24%
solubility kinetic at 20 h [26]: 99 µM (≈ 39.3 µg/mL)
solubility kinetic at 20 h [27]: 93 µM (≈ 37 µg/mL)
AUC/dose [28]: 2178 µM·min
Cmax [29]: 1.2 µM
Cmax [30]: 5.1 µM
Tmax [31]: 0.25 to 2 h
AUC/dose [32]: 0.867 µg·h/mL/mg/kg
AUC/dose [33]: 342 µM·min
Cmax [34]: 431 ng/mL
AUC/dose [35]: 1.759 µg·h/mL/mg/kg
Cmax/dose [36]: 0.173 µg/mL/mg/kg
Vd [37]: 3 L/kg
Cmax/dose [38]: 0.093 µg/mL/mg/kg

FC(F)(F)c1cccc(-c2nc3cnc(Nc4ccccn4)cc3[nH]2)c1
Drug metabolism [39]: Metabolite_Detected
solubility kinetic at 20 h [20]: 21 µM (≈ 7.46 µg/mL)
Drug metabolism [40]: Metabolite_Detected
solubility kinetic at 20 h [26]: < 5 µM
Drug metabolism [41]: Metabolite_Detected
